Test results from patent US9890189B2, “Gemcitabine prodrugs and uses thereof” (BoYen Therapeutics, Inc., priority 2012, dated 2018).

Key:
[1] = In vitro metabolic conversion assay using human liver S9 fractions; format: in vitro ADME; details: 10 μM, 37° C., 60 minutes, LC/MS/MS; for Formation of Gemcitabine: not quantitatively monitored
Protocol: Method H: In Vitro Metabolic Conversion Assay Using Human Liver S9 Fractions
A representative sampling of prodrug compounds was incubated with human liver S9 fractions (Life Technologies Corporation) at 10 μM in duplicates. Incubations were carried out at 37° C. in a shaker water bath. Samples were taken at 0 and 60 minutes. Negative controls (without S9 fractions) and positive controls (7-ethoxycoumarin and 7-hydroxycoumarin) were run concurrently with the test articles in duplicates. All samples were analyzed using LC/MS/MS; depletion of the parent compounds and the formation of gemcitabine were monitored, though the latter was not quantitatively monitored.
After incubation with human liver S9 fractions for 60 minutes, depletion of each test compound was observed along with formation of gemcitabine as a metabolite.

[2] = tested on: human HCT116 colorectal adenocarcinoma; assay: Efficacy evaluation in HCT116 tumor cell xenograft model in nude mice; format: in vivo; details: female nude mice, subcutaneous HCT116 tumors, Day 14 vs control group
Protocol: Method I: Efficacy Evaluation in HCT116 Tumor Cell Xenograft Model in Nude Mice Compounds 17, 18, 19 and 32 were evaluated for oral activity against human HCT116 colorectal adenocarcinoma in female nude mice. For the treatment groups, the above compounds were given perorally in 15% Tween 80 at a dose of 20 mg/kg once daily for 14 days. As a reference group, gemcitabine was administered intraperitoneally at 160 mg/kg once every three days for 4 doses. A control group received only the vehicle on the same peroral schedule as that of the treatment groups. Treatment began on Day 1 in all groups of female nude mice (n=8) bearing subcutaneous tumors of ˜180 mm^3 in size; the study duration was 14 days. Treatment results were presented as Tumor Growth Inhibition (TGI) as a percentage of average tumor size of untreated mice in the control group at Day 14.

[3] = perorally in 15% Tween 80, 20 mg/kg once daily for 14 days

Structure (SMILES)	% of Parent Remaining [1]	Formation of Gemcitabine [1]	Tumor Growth Inhibition (TGI) [2, 3]	Tumor Growth Inhibition (TGI) ([2]; intraperitoneally 160 mg/kg once every three days for 4 doses)
Nc1ccn([C@@H]2O[C@H](COC(=O)CCc3ccccc3)[C@@H](O)C2(F)F)c(=O)n1 [Compound 3, 4-Amino-1-[(2R,4R,5R)-3,3-difluoro-4-hydroxy-5-(3-phenylpropanoyloxymethyl)oxolan-2-yl]-1,2-dihydropyrimidin-2-one]	1%	✓		
CCOC(=O)Nc1ccn([C@@H]2O[C@H](COC(=O)CCc3ccccc3)[C@@H](O)C2(F)F)c(=O)n1 [Compound 10, 1-[(2R,4R,5R)-3,3-Difluoro-4-hydroxy-5-(3-phenylpropanoyloxymethyl)oxolan-2-yl]-1,2-dihydro-4-(ethoxycarbonylamino)-pyrimidin-2-one]	0%	✓		
CCCCOC(=O)Nc1ccn([C@@H]2O[C@H](COC(=O)CCc3ccccc3)[C@@H](O)C2(F)F)c(=O)n1 [Compound 17, 4-(Butyloxycarbonylamino)-1-[(2R,4R,5R)-3,3-difluoro-4-hydroxy-5-(3-phenylpropanoyloxymethyl)oxolan-2-yl]-1,2-dihydropyrimidin-2-one]			77.3%	
CCCCOC(=O)Nc1ccn([C@@H]2O[C@H](COC(=O)CCc3cccnc3)[C@@H](O)C2(F)F)c(=O)n1 [Compound 18, 4-(Butyloxycarbonylamino)-1-[(2R,4R,5R)-3,3-difluoro-4-hydroxy-5-(3-(3-pyridyl)propanoyloxymethyl)oxolan-2-yl]-1,2-dihydro-pyrimidin-2-one]			81.1%	
CCCCOC(=O)Nc1ccn([C@@H]2O[C@H](COC(=O)CCC(=O)Nc3ccccc3)[C@@H](O)C2(F)F)c(=O)n1 [Compound 19, 1-[(2R,4R,5R)-5-((4-Anilino-4-oxo-butanoyloxy)methyl)-3,3-difluoro-4-hydroxy-oxolan-2-yl]-4-(butyloxycarbonylamino)-1,2-dihydro-pyrimidin-2-one]			75.8%	
CCCCCOC(=O)Nc1ccn([C@@H]2O[C@H](COC(=O)CCc3cccnc3)[C@@H](O)C2(F)F)c(=O)n1 [Compound 32, 1-[(2R,4R,5R)-3,3-Difluoro-4-hydroxy-5-(3-(3-pyridyl)-propanoyloxymethyl)oxolan-2-yl]-1,2-dihydro-4-(pentyloxycarbonylamino)-pyrimidin-2-one]			86.7%	
CCOC(=O)Nc1ccn([C@@H]2O[C@H](CO)[C@@H](OC(=O)CCc3ccccc3)C2(F)F)c(=O)n1 [Compound 58, 1-[(2R,4R,5R)-3,3-Difluoro-5-hydroxymethyl-4-(3-phenylpropanoyloxy)oxolan-2-yl]-1,2-dihydro-4-(ethoxycarbonylamino)-pyrimidin-2-one]	0%	✓		
CCOC(=O)Nc1ccn([C@@H]2O[C@H](CO)[C@@H](OC(=O)CCCCCCC(=O)Nc3ccccc3)C2(F)F)c(=O)n1 [Compound 62, 1-[(2R,4R,5R)-4-(8-Anilino-8-oxo-octanoyloxy)-3,3-difluoro-5-hydroxymethyl-oxolan-2-yl]-1,2-dihydro-4-(ethoxycarbonylamino)-pyrimidin-2-one]	2%	✓		
Nc1ccn([C@@H]2O[C@H](CO)[C@@H](O)C2(F)F)c(=O)n1 [gemcitabine]				85.6%

The next lines start with results.

% of Parent Remaining [1]	Formation of Gemcitabine [1]	Structure (SMILES)	Tumor Growth Inhibition (TGI) [2, 3]	Tumor Growth Inhibition (TGI) ([2]; intraperitoneally 160 mg/kg once every three days for 4 doses)
8%	✓	Nc1ccn([C@@H]2O[C@H](COC(=O)CCCCC(=O)Nc3ccccc3)[C@@H](O)C2(F)F)c(=O)n1 [Compound 6, 4-Amino-1-[(2R,4R,5R)-5-((6-anilino-6-oxo-hexanoyloxy)methyl)-3,3-difluoro-4-hydroxy-oxolan-2-yl]-1,2-dihydropyrimidin-2-one]		
0%	✓	CCOC(=O)Nc1ccn([C@@H]2O[C@H](COC(=O)CCc3cccnc3)[C@@H](O)C2(F)F)c(=O)n1 [Compound 11, 1-[(2R,4R,5R)-3,3-Difluoro-4-hydroxy-5-(3-(3-pyridyl)-propanoyloxymethyl)oxolan-2-yl]-1,2-dihydro-4-(ethoxycarbonylamino)-pyrimidin-2-one]		
13%	✓	CCOC(=O)Nc1ccn([C@@H]2O[C@H](COC(=O)CCCCC(=O)Nc3ccccc3)[C@@H](O)C2(F)F)c(=O)n1 [Compound 13, 1-[(2R,4R,5R)-5-((6-Anilino-6-oxo-hexanoyloxy)methyl)-3,3-difluoro-4-hydroxy-oxolan-2-yl]-1,2-dihydro-4-(ethoxycarbonylamino)-pyrimidin-2-one]		
0%	✓	CCOC(=O)Nc1ccn([C@@H]2O[C@H](COC(=O)CCCCCCC(=O)Nc3ccccc3)[C@@H](O)C2(F)F)c(=O)n1 [Compound 14, 1-[(2R,4R,5R)-5-((8-Anilino-8-oxo-octanoyloxy)methyl)-3,3-difluoro-4-hydroxy-oxolan-2-yl]-1,2-dihydro-4-(ethoxycarbonylamino)-pyrimidin-2-one]		
1%	✓	CCOC(=O)Nc1ccn([C@@H]2O[C@H](CO)[C@@H](OC(=O)CCc3cccnc3)C2(F)F)c(=O)n1 [Compound 59, 1-[(2R,4R,5R)-3,3-Difluoro-5-hydroxymethyl-4-(3-(3-pyridyl)propanoyloxy)oxolan-2-yl]-1,2-dihydro-4-(ethoxycarbonylamino)-pyrimidin-2-one]		
